In US20100075907A1, “NEUROMEDIN U RECEPTOR AGONISTS AND USES THEREOF” (priority 2006, published 2010):
Starred links: 1 amine or outer side, 2 acyl side, 3 side chain; linkers in the order of their positions; H or OH if unused. Residues, ends and D or L forms follow the SMILES beside them. No end group written: not given here. *: point of attachment. X2 = CCN1C(=O)CC(SC[C@H](NC(C)=O)C(=O)NCCCOCCOCCOCCCN*)C1=O; Succinimide(1-Et,3-yl) = CCN1C(=O)CC(*)C1=O; Palmitoyl = CCCCCCCCCCCCCCCC(=O)*; Suc = O=C(CCC(=O)[*:2])[*:1]

Biological target: mouse NMUR2 (Mus musculus, UniProt Q8BZ39)
Experiment: FLIPR calcium mobilization assay, mouse NMUR2
Assay type: cell-based
Design: expressed in transfected cells; host or cells: FLP-In CHO or HEK-293 FLP-In cells (pcDNA5)
Details: mouse NMUR2; for % Activity: maximum response at 1 μM compared to hNMU-25; for EC50: FLIPR
Text: Human, mouse or rat cDNAs encoding NMUR1 or NMUR2 (as described in Howard et al. Nature 406: 70-74 (2000) were subcloned in pcDNA5 (Invitrogen) and transfected into FLP-In CHO cells and HEK-293 FLP-In cells purchased from Invitrogen (Carlsbad, Calif.) using lipofectamine (Invitrogen). The Flp-In system allows integration and expression of a particular gene of interest at a specific genomic location utilizing the Flp recombinase from yeast. The transfected cells were selected by growth in medium containing 200 μg/mL hygromycin (Invitrogen). Populations were frozen at early passage numbers, and these stocks were used for further studies. Stable clones that expressed the mRNAs were identified functionally by FLIPR as well as by RT-PCR. […] Two different rodent NMUR1 cell lines were thus generated: one with the codon as predicted from the genomic databases and another cell line with an engineered methionine (ATG) as the start codon. Additionally, stable cell lines expressing the human receptors were generated in HEK-293/aeq17 cells which stably express the aequorin gene under the CMV promoter. The human NMUR2 cDNA was cloned into pcDNA3.1 and human NMUR1 was subcloned into pIRES-puro (Clontech, Mountain View, Calif.), after transfection cells were selected in media containing G418 and either hygromycin (NMUR2) or puromycin (NMUR1).
The NMU receptors signal primarily through Gαq/11 proteins; therefore calcium mobilization assays can be utilized for functional activity.
Stable cell lines expressing human and or rodent NMUR1 or human NMUR2 receptors were plated at a density of 12,000 cells per well overnight on poly-lysine coated 384-well black-walled plates. The following day, the media was removed from the plates and the cells were subsequently loaded with Fluo-3 (Molecular Probes), a calcium sensitive dye, diluted in FLIPR buffer (1× Hank's buffered saline containing 20 mM HEPES, 0.1% BSA, 2.5 mM probenecid (Sigma) and 1.6 mM TR40). All reagents are from Invitrogen unless otherwise noted. Peptide stocks were resuspended in DMSO at a stock concentration of 2 mM and diluted in FLIPR buffer on the day of the experiment to a 4 μM working stock solution.
After a 90 minute incubation at room-temperature, cell plates were loaded onto a FLIPR (Molecular Devices) to monitor cellular fluorescence (excitation=488 nm; emission=540 nm) before and after compound/peptide addition. Eight to twelve point dose responses were tested on NMUR-expressing cell lines using FLIPR with 1 μM peptide as the highest dose. The response after peptide addition was taken as the maximum fluorescence units minus the fluorescence immediately prior to stimulation for each well. EC50 values were calculated using GraphPad Prism (San Diego, Calif.) software.
In vitro responses of Neuromedin U receptor agonists (NMU1 to NMU25) in the FLIPR assay for human (Table 3), mouse (Table 4) and rat (Table 5) NMUR1 and NMUR2. EC50s are reported in nM values. Percent activity refers to the maximum response at 1 μM compared to the hNMU-25 response at the same concentration. NT=not tested.

mouse NMUR2, sequence (Q8BZ39 whole entry): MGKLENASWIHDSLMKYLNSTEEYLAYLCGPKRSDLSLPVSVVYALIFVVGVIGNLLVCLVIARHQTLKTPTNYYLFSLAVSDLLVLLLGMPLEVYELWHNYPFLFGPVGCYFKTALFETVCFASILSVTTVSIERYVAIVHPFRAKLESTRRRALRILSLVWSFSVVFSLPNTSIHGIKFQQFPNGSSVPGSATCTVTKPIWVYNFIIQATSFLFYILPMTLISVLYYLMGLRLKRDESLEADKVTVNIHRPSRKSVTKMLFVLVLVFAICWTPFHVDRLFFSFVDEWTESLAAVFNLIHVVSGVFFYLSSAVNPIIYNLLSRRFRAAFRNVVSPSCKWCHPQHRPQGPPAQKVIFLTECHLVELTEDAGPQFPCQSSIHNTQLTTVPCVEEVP

% Activity	EC50	Compound
100%	–	CCN1C(=O)CC(SC[C@H](NC(C)=O)C(=O)NCCCOCCOCCOCCCNC(=O)CCC(=O)N[C@@H](Cc2ccccc2)C(=O)N[C@@H](CC(C)C)C(=O)N[C@@H](Cc2ccccc2)C(=O)N[C@@H](CCCNC(=N)N)C(=O)N2CCC[C@H]2C(=O)N[C@@H](CCCNC(=N)N)C(=O)N[C@@H](CC(N)=O)C(N)=O)C1=O (stereo partly shown) [NMU15, Ac-C1-Ttds-FLFRPRN-CONH2] ({X2-Suc}-FLFRPRN-NH2)
100%	–	CCN1C(=O)CC(SC[C@H](NC(C)=O)C(=O)N[C@@H](C)C(=O)N[C@@H](CO)C(=O)N[C@@H](CCC(N)=O)C(=O)N[C@@H](CO)C(=O)N[C@@H](CCCNC(=N)N)C(=O)NCC(=O)N[C@@H](Cc2ccc(O)cc2)C(=O)N[C@@H](Cc2ccccc2)C(=O)N[C@@H](CC(C)C)C(=O)N[C@@H](Cc2ccccc2)C(=O)N[C@@H](CCCNC(=N)N)C(=O)N2CCC[C@H]2C(=O)N[C@@H](CCCNC(=N)N)C(=O)N[C@@H](CC(N)=O)C(N)=O)C1=O (stereo partly shown) [NMU17] (Ac-C(Succinimide(1-Et,3-yl))ASQSRGYFLFRPRN-NH2)
100%	–	CCN1C(=O)CC(SC[C@H](NC(C)=O)C(=O)N[C@@H](Cc2ccccc2)C(=O)N[C@@H](CCC(N)=O)C(=O)N[C@@H](CO)C(=O)N2CCC[C@H]2C(=O)N[C@@H](Cc2ccccc2)C(=O)N[C@@H](C)C(=O)N[C@@H](CO)C(=O)N[C@@H](CCC(N)=O)C(=O)N[C@@H](CO)C(=O)N[C@@H](CCCNC(=N)N)C(=O)NCC(=O)N[C@@H](Cc2ccc(O)cc2)C(=O)N[C@@H](Cc2ccccc2)C(=O)N[C@@H](CC(C)C)C(=O)N[C@@H](Cc2ccccc2)C(=O)N[C@@H](CCCNC(=N)N)C(=O)N2CCC[C@H]2C(=O)N[C@@H](CCCNC(=N)N)C(=O)N[C@@H](CC(N)=O)C(N)=O)C1=O (stereo partly shown) [NMU19] (Ac-C(Succinimide(1-Et,3-yl))FQSPFASQSRGYFLFRPRN-NH2)
100%	–	CCN1C(=O)CC(SC[C@H](NC(C)=O)C(=O)N[C@@H](CSC2CC(=O)N(CC)C2=O)C(=O)N[C@@H](Cc2ccccc2)C(=O)N[C@@H](CCCNC(=N)N)C(=O)N[C@H](C(=O)N[C@@H](CC(=O)O)C(=O)N[C@@H](CCC(=O)O)C(=O)N[C@@H](CCC(=O)O)C(=O)N[C@@H](Cc2ccccc2)C(=O)N[C@@H](CCC(N)=O)C(=O)N[C@@H](CO)C(=O)N2CCC[C@H]2C(=O)N[C@@H](Cc2ccccc2)C(=O)N[C@@H](C)C(=O)N[C@@H](CO)C(=O)N[C@@H](CCC(N)=O)C(=O)N[C@@H](CO)C(=O)N[C@@H](CCCNC(=N)N)C(=O)NCC(=O)N[C@@H](Cc2ccc(O)cc2)C(=O)N[C@@H](Cc2ccccc2)C(=O)N[C@@H](CC(C)C)C(=O)N[C@@H](Cc2ccccc2)C(=O)N[C@@H](CCCNC(=N)N)C(=O)N2CCC[C@H]2C(=O)N[C@@H](CCCNC(=N)N)C(=O)N[C@@H](CC(N)=O)C(N)=O)C(C)C)C1=O (stereo partly shown) [NMU22] (Ac-C(Succinimide(1-Et,3-yl))C(Succinimide(1-Et,3-yl))FRVDEEFQSPFASQSRGYFLFRPRN-NH2)
82.4%	–	CCCCCCCCCCCCCCCC(=O)N[C@@H](CSC1CC(=O)N(CC)C1=O)C(=O)N[C@@H](Cc1ccccc1)C(=O)N[C@@H](CCCNC(=N)N)C(=O)N[C@H](C(=O)N[C@@H](CC(=O)O)C(=O)N[C@@H](CCC(=O)O)C(=O)N[C@@H](CCC(=O)O)C(=O)N[C@@H](Cc1ccccc1)C(=O)N[C@@H](CCC(N)=O)C(=O)N[C@@H](CO)C(=O)N1CCC[C@H]1C(=O)N[C@@H](Cc1ccccc1)C(=O)N[C@@H](C)C(=O)N[C@@H](CO)C(=O)N[C@@H](CCC(N)=O)C(=O)N[C@@H](CO)C(=O)N[C@@H](CCCNC(=N)N)C(=O)NCC(=O)N[C@@H](Cc1ccc(O)cc1)C(=O)N[C@@H](Cc1ccccc1)C(=O)N[C@@H](CC(C)C)C(=O)N[C@@H](Cc1ccccc1)C(=O)N[C@@H](CCCNC(=N)N)C(=O)N1CCC[C@H]1C(=O)N[C@@H](CCCNC(=N)N)C(=O)N[C@@H](CC(N)=O)C(N)=O)C(C)C (stereo partly shown) [NMU24] (Palmitoyl-C(Succinimide(1-Et,3-yl))FRVDEEFQSPFASQSRGYFLFRPRN-NH2)
–	14.8 nM	Ac-C2FQSPFASQSRGYFLFRPRN-CONH2 ({Ac-C(PEG 40 kDa)}-FQSPFASQSRGYFLFRPRN-NH2; not fully specified; printed as Ac-C2FQSPFASQSRGYFLFRPRN-CONH2) [NMU20, C2 = Cys(PEG)240 kDa]
–	19 nM	Ac-C2FRVDEEFQSPFASQSRGYFLFRPRN-CONH2 [NMU9] ({Ac-C(PEG 40 kDa)}-FRVDEEFQSPFASQSRGYFLFRPRN-NH2) [C2 = Cys(PEG)240 kDa from Nektar (mPEG2-MAL-40 k)]
–	21.3 nM	Ac-C4-C4-FRVDEEFQSPFASQSRGYFLFRPRN-CONH2 ({Ac-C(PEG 20 kDa)-C(PEG 20 kDa)}-FRVDEEFQSPFASQSRGYFLFRPRN-NH2) [NMU23, C4 = Cys(PEG)20 kDa]
100%	1.2 nM	Ac-FRVDEEFQSPFASQSRGYFLFRPRN-NH2 [NMU2]
100%	1 nM	Ac-FRVDEEFQSPFASQSRPYFLFRPRN-NH2 [NMU5]
100%	–	GYFLFRPRN-NH2 [NMU3]
100%	1.2 nM	H-FRVDEEFQSPFASQSRPYFLFRPRN-NH2 [NMU4]
–	18.8 nM	Pam-C2FRVDEEFQSPFASQSRGYFLFRPRN-CONH2 ({Palmitoyl-C(PEG 40 kDa)}-FRVDEEFQSPFASQSRGYFLFRPRN-NH2) [NMU25, Pam = palmitoyl; C2 = Cys(PEG)240 kDa]
